Results on 24 molecules are retold here after patent US8008303B2, “Biphenyl derivatives and their use in treating hepatitis C” (AstraZeneca AB, priority 2005, dated 2011).

Molecules are shown by their SMILES. Like-named read-outs stand apart in the source and are kept apart here.

Data set [1] concerns HCV replicon cells Huh 9B. Description: HCV replicon assay (luciferase readout). Type of data set: cell-based. An outline of the steps: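 Compounds, made up at twice final strength (final DMSO 1%), were added to subgenomic replicon cells one day after plating. Incubation then ran 72 h at 37 °C, 5% CO2, without G418. Replication was quantified as firefly luciferase luminescence in lysed cells, with cytotoxicity assessed on a duplicate clear plate.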
For orientation: In antiviral work, replicon cells carry a viral genome segment that copies itself.

Data set [2] deals with HCV replicon cells Huh 9B. Type of data set: cell-based.
The mark [3] stands for this setting: Hepatitis C virus, 72 h, concentration reducing replicon level (luciferase activity) by 50% vs untreated cell control, 72 h incubation.
Setting [4] is: concentration reducing total cell area by 50% relative to DMSO controls, methylene blue, absorbance 620 nm, 72 h incubation.

Regarding `Cc1ccc(C(=O)Nc2ccc(C)c(-c3ccc(C(=O)Nc4ccc(CN5CCS(=O)(=O)CC5)cc4)cc3)c2)cc1` [Example 160, 2′-Methyl-5′-(4-methyl-benzoylamino)-biphenyl-4-carboxylic acid [4-(1,1-dioxo-1lambda*6*-thiomorpholin-4-ylmethyl)-phenyl]-amide], in data set [1] (setting [3]), the IC50 (commonly the point on the concentration scale where inhibition reaches its midpoint) is < 1000 nM. Moreover, in data set [2] (setting [4]), the TD50 entry was “* (* < 50 μM)”.
As to `Cc1cc(NC(=O)C2CC2)ccc1-c1cccc(C(=O)Nc2ccc(N3CCOCC3)cc2)c1` [Example 113, 4′-(Cyclopropanecarbonyl-amino)-2′-methyl-biphenyl-3-carboxylic acid (4-morpholin-4-yl-phenyl)-amide], the IC50 in data set [1] (setting [3]) was > 5000 nM. In data set [2] (setting [4]), the TD50 entry is listed as “* (* < 50 μM)”.
`Cc1ccc(NC(=O)C2CC2)cc1-c1ccc(C(=O)NCc2cccc(Cl)c2)cc1` [Example 216, 5′-(Cyclopropanecarbonyl-amino)-2′-methyl-biphenyl-4-carboxylic acid 3-chloro-benzylamide]: in data set [1] (setting [3]), the IC50 was > 5000 nM. Moreover, the TD50 result in data set [2] (setting [4]) is on record as “* (* < 50 μM)”.
As for `Cc1ccc(C(=O)Nc2ccc(N3CCOCC3)cc2)cc1-c1ccc(C(=O)NCCc2cnc[nH]2)cc1` [Example 13, 6-Methyl-biphenyl-3,4′-dicarboxylic acid 4′-{[2-(3H -imidazol-4-yl)-ethyl]-amide} 3-[(4-morpholin-4-yl-phenyl)-amide]], the IC50 in data set [1] is > 5000 nM. Besides, the TD50 entry in data set [2] is on record as “* (key: * < 50 μM; ** > 50 μM)”.
The like results for `Cc1cc(C(=O)Nc2ccc(N3CCOCC3)cc2)ccc1-c1cccc(C(=O)Nc2ccc(CN3CCS(=O)(=O)CC3)cc2)c1` [Example 135, 2′-Methyl-biphenyl-3,4′-dicarboxylic acid 3-{[4-(1,1-dioxo-1 lambda*6*-thiomorpholin-4-ylmethyl)-phenyl]-amide} 4′-[(4-morpholin-4-yl-phenyl)-amide]] were, in that order, < 1000 nM and “* (key: * < 50 μM; ** > 50 μM)”.
As to `CCCS(=O)(=O)N1CCN(Cc2ccc(NC(=O)c3ccc(-c4cc(NC(=O)C5CC5)ccc4C)cc3)cc2)CC1` [Example 243, 5′-(Cyclopropanecarbonyl-amino)-2′-methyl-biphenyl-4-carboxylic acid [4-(4-propane-1-sulfonyl-piperazin-1-ylmethyl)-phenyl]-amide], in data set [1] (setting [3]), the 50% inhibitory concentration (IC50) was < 1000 nM. Further, the TD50 result in data set [2] (setting [4]) is given as “* (* < 50 μM)”.
`Cc1ccc(C(=O)Nc2ccc(N3CCOCC3)cc2)cc1-c1ccc(C(=O)NCc2cccc(C(F)(F)F)c2)cc1` [Example 10, 6-Methyl-biphenyl-3,4′-dicarboxylic acid 3-[(4-morpholin-4-yl-phenyl)-amide] 4′-(3-trifluoromethyl-benzylamide)] had a half-maximal inhibitory concentration (IC50) in data set [1] of 1000 to 5000 nM. Moreover, in data set [2], the TD50 entry is on record as “* (key: * < 50 μM; ** > 50 μM)”.
For the molecule `COCCNC(=O)c1ccc(C)c(-c2ccc(C(=O)Nc3ccc(CN4CCS(=O)(=O)CC4)cc3)cc2)c1` [Example 126, 6-Methyl-biphenyl-3,4′-dicarboxylic acid 4′-{[4-(1,1-dioxo-1lambda*6*-thiomorpholin-4-ylmethyl)-phenyl]-amide} 3-[(2-methoxy-ethyl)-amide]], the IC50 in data set [1] is 1000 to 5000 nM. Further, the TD50 entry in data set [2] was “* (key: * < 50 μM; ** > 50 μM)”.
Take `Cc1ccc(CNC(=O)c2ccc(-c3cc(C(=O)Nc4ccc(N5CCOCC5)cc4)ccc3C)cc2)cc1Cl` [Example 43, 6-Methyl-biphenyl-3,4′-dicarboxylic acid 4′-(3-chloro-4-methyl-benzylamide) 3-[(4-morpholin-4-yl-phenyl)-amide]]: the half-inhibitory concentration (IC50) in data set [1] was < 1000 nM. The TD50 result in data set [2] was “** (key: * < 50 μM; ** > 50 μM)”.
As for `Cc1ccc(C(=O)Nc2ccc(N3CCOCC3)cc2)cc1-c1ccc(C(=O)Nc2ccc3c(c2)OCO3)cc1` [Example 16, 6-Methyl-biphenyl-3,4′-dicarboxylic acid 4′-benzo[1,3]dioxol-5-ylamide 3-[(4-morpholin-4-yl-phenyl)-amide]], the IC50 in data set [1] is 1000 to 5000 nM. Besides, the TD50 result in data set [2] was “** (key: * < 50 μM; ** > 50 μM)”.
The molecule `Cc1ccc(NC(=O)c2ccc(N3CCOCC3)cc2)cc1-c1ccc(C(=O)Nc2cccc(OC(F)(F)F)c2)cc1` [Example 68, 2′-Methyl-5′-(4-morpholin-4-yl-benzoylamino)-biphenyl-4-carboxylic acid (3-trifluoromethoxy-phenyl)-amide] displayed an IC50 in data set [1] (setting [3]) of 1000 to 5000 nM. Also, the TD50 result in data set [2] (setting [4]) was “** (** > 50 μM)”.
For the molecule `Cc1ccc(C(=O)Nc2ccc(N3CCOCC3)cc2)cc1-c1ccc(C(=O)NCc2cccc(OC(F)(F)F)c2)cc1` [Example 41, 6-Methyl-biphenyl-3,4′-dicarboxylic acid 3-[(4-morpholin-4-yl-phenyl)-amide] 4′-(3-trifluoromethoxy-benzylamide)], the IC50 in data set [1] was < 1000 nM. Besides, in data set [2], the TD50 result is reported as “** (key: * < 50 μM; ** > 50 μM)”.
The like results for `CS(=O)(=O)N1CCN(Cc2ccc(NC(=O)c3ccc(Cl)c(-c4ccc(C(=O)Nc5ccc(N6CCOCC6)cc5)cc4)c3)cc2)CC1` [Example 265, 6-Chloro-biphenyl-3,4′-dicarboxylic acid 3-{[4-(4-methanesulfonyl-piperazin-1-ylmethyl)-phenyl]-amide} 4′-[(4-morpholin-4-yl-phenyl)-amide]] were, in that order, < 1000 nM and “* (key: * < 50 μM; ** > 50 μM)”.
`O=C(Nc1ccc(CN2CCS(=O)(=O)CC2)cc1)c1ccc(-c2cc(NC(=O)C3CC3)ccc2Cl)cc1` [Example 194, 2′-Chloro-5′-(cyclopropanecarbonyl-amino)-biphenyl-4-carboxylic acid [4-(1,1-dioxo-1lambda*6*-thiomorpholin-4-ylmethyl)-phenyl]-amide]: the IC50 in data set [1] (setting [3]) was < 1000 nM. Also, in data set [2] (setting [4]), the TD50 entry is on record as “* (* < 50 μM)”.
`Cc1cc(C(=O)Nc2ccc(N3CCOCC3)cc2)ccc1-c1cccc(C(=O)Nc2ccc(-c3ccno3)cc2)c1` [Example 65, 2′-Methyl-biphenyl-3,4′-dicarboxylic acid 3-[(4-isoxazol-5-yl-phenyl)-amide] 4′-[(4-morpholin-4-yl-phenyl)-amide]]: the 50% inhibitory concentration (IC50) in data set [1] is < 1000 nM. The TD50 result in data set [2] is reported as “* (key: * < 50 μM; ** > 50 μM)”.
With `Cc1ccc(C(=O)NCCN2CCCCC2)cc1-c1ccc(C(=O)Nc2ccc(CN3CCS(=O)(=O)CC3)cc2)cc1` [Example 125, 6-Methyl-biphenyl-3,4′-dicarboxylic acid 4′-{[4-(1,1-dioxo-1lambda*6*-thiomorpholin-4-ylmethyl)-phenyl]-amide} 3-[(2-piperidin-1-yl-ethyl)-amide]], the IC50 in data set [1] is 1000 to 5000 nM. In addition, the TD50 entry in data set [2] is recorded as “* (key: * < 50 μM; ** > 50 μM)”.
In data set [1], `Cc1cc(C(=O)Nc2ccc(N3CCOCC3)cc2)ccc1-c1cccc(C(=O)NCc2cccc(Cl)c2)c1` [Example 66, 2′-Methyl-biphenyl-3,4′-dicarboxylic acid 3-(3-chloro-benzylamide) 4′-[(4-morpholin-4-yl-phenyl)-amide]] registered a half-inhibitory concentration (IC50) of 1000 to 5000 nM. In addition, the TD50 entry in data set [2] was “* (key: * < 50 μM; ** > 50 μM)”.
Take `Cc1ccc(C(=O)Nc2ccc(N3CCOCC3)cc2)cc1-c1ccc(NC(=O)c2cnccc2C(F)(F)F)cc1` [Example 111, N-[2′-Methyl-5′-(4-morpholin-4-yl-phenylcarbamoyl) -biphenyl-4-yl]-4-trifluoromethyl-nicotinamide]: the half-maximal inhibitory concentration (IC50) in data set [1] (setting [3]) is > 5000 nM. Moreover, in data set [2] (setting [4]), the TD50 entry is recorded as “** (** > 50 μM)”.
In data set [1], `Cc1ccc(C(=O)Nc2ccc(N3CCOCC3)cc2)cc1-c1ccc(C(=O)Nc2ccc(CO)cc2)cc1` [Example 81, 6-Methyl-biphenyl-3,4′-dicarboxylic acid 4′-[(4-hydroxymethyl-phenyl)-amide] 3-[(4-morpholin-4-yl-phenyl)-amide]] had an IC50 of 1000 to 5000 nM. In addition, in data set [2], the TD50 result is “* (key: * < 50 μM; ** > 50 μM)”.
In the case of `CNS(=O)(=O)c1ccc(NC(=O)c2ccc(-c3cc(C(=O)Nc4ccc(N5CCOCC5)cc4)ccc3C)cc2)cc1` [Example 29, 6-Methyl-biphenyl-3,4′-dicarboxylic acid 4′-[(4-methylsulfamoyl-phenyl)-amide] 3-[(4-morpholin-4-yl-phenyl)-amide]], in data set [1], the IC50 is < 1000 nM. The TD50 entry in data set [2] is “** (key: * < 50 μM; ** > 50 μM)”.
`Cc1ccc(C(=O)Nc2ccc(N3CCOCC3)cc2)cc1-c1ccc(C(=O)N[C@H](CO)Cc2c[nH]c3ccccc23)cc1` [Example 51, 6-Methyl-biphenyl-3,4′-dicarboxylic acid 4′-{[(S)-1-hydroxymethyl-2-(1H-indol-3-yl)-ethyl]-amide} 3-[(4-morpholin-4-yl-phenyl)-amide]]: the IC50 in data set [1] was 1000 to 5000 nM. For the same molecule, the TD50 entry in data set [2] was “** (key: * < 50 μM; ** > 50 μM)”.
In data set [1] (setting [3]), `Cc1ccc(C(=O)N2CCC(N3CCCC3)CC2)cc1-c1ccc(C(=O)Nc2ccc(CN3CCS(=O)(=O)CC3)cc2)cc1` [Example 128, 2′-Methyl-5′-(4-pyrrolidin-1-yl-piperidine-1-carbonyl) -biphenyl-4-carboxylic acid [4-(1,1-dioxo-1lambda*6*-thiomorpholin-4-ylmethyl)-phenyl]-amide] showed an IC50 of 1000 to 5000 nM. For the same molecule, the TD50 result in data set [2] (setting [4]) is “* (* < 50 μM)”.
On to `Cc1ccc(C(=O)Nc2ccc(N3CCOCC3)cc2)cc1-c1ccc(C(=O)NCc2ccc(Cl)c(C(F)(F)F)c2)cc1` [Example 42, 6-Methyl-biphenyl-3,4′-dicarboxylic acid 4′-(4-chloro-3-trifluoromethyl-benzylamide) 3-[(4-morpholin-4-yl-phenyl)-amide]], for which the half-inhibitory concentration (IC50) in data set [1] is < 1000 nM. Further, the TD50 entry in data set [2] is given as “** (key: * < 50 μM; ** > 50 μM)”.
In data set [1] (setting [3]), `Cc1ccc(C(=O)Nc2ccc(N3CCOCC3)cc2)cc1-c1ccc(CNC2CC2)cc1` [Example 98, 4′-Cyclopropylaminomethyl-6-methyl-biphenyl-3-carboxylic acid (4-morpholin-4-yl-phenyl)-amide] had a concentration for half-maximal inhibition (IC50) of 1000 to 5000 nM. Also, in data set [2] (setting [4]), the TD50 entry is “* (* < 50 μM)”.
